From the supplement of paper PMC10627819

What was measured:
Conditions in all cases: main component drawn
S. aureus DSM 20231 = assay: Bliss interaction score (quartile over a dose matrix) (fitness difference); higher = more antagonism (negative = synergy)
Summary of the method: (§1)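 The Bliss score was calculated by subtracting the expected fitness, the product of single-drug values, from the observed fitness. OD595 at entry into stationary phase, over the plate's robust no-drug mean and capped at 1, served as the fitness readout. Single-drug values were inferred from combination data, and scores are summarised by quartiles across technical, biological and donor/recipient replicates.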

B. subtilis 168 [1] = assay: as above
Summary of the method: as §1

S. pneumoniae D39V [2] = assay: as above
Summary of the method: as §1

S. aureus Newman [3] = assay: as above
Summary of the method: as §1

B. subtilis 168 [4] = assay: fitness (endpoint OD595 vs no drug) (fraction); higher = more growth
Summary of the method: (§2)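 Growth medium was TSB, LB Lennox or CY, and plates were kept at 37 °C. Inoculation was at OD595 0.01 in 384-well plates, at 30 µl per well or 55 µl for S. pneumoniae. OD595 was monitored every 30 min for 14 h and background-subtracted using the first reading. Fitness is the optical density on entering stationary phase divided by the robust mean of no-drug controls, with values capped at 1.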

S. pneumoniae D39V [5] = assay: as above
Summary of the method: as §2

S. aureus Newman [6] = assay: as above
Summary of the method: as §2
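Wherever Bliss interaction score (quartile over a dose matrix) is given: first quartile when negative (synergy) and third quartile when positive (antagonism).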

CNC(C)C1CCC(N)C(OC2C(N)CC(N)C(OC3OCC(C)(O)C(NC)C3O)C2O)O1 (centres undefined) [Gentamicin] + COc1ccc(C[C@H](N)C(=O)N[C@H]2[C@@H](O)[C@H](n3cnc4c(N(C)C)ncnc43)O[C@@H]2CO)cc1 [Puromycin]
Conditions	Bliss interaction score
B. subtilis 168 [1]	-0.204
S. aureus DSM 20231	-0.278
S. aureus Newman [3]	0.0455
S. pneumoniae D39V [2]	-0.289

Conditions	fitness
B. subtilis 168 [4], first compound 0.0625 µg/mL, partner 0.39 µg/mL	0.889
B. subtilis 168 [4], first compound 0.25 µg/mL, partner 0.39 µg/mL	0.0531
B. subtilis 168 [4], first compound 0.25 µg/mL, partner 0.78 µg/mL	0.0448
B. subtilis 168 [4], first compound 0.25 µg/mL, partner 1.56 µg/mL	0.0402
S. aureus Newman [6], first compound 0.5 µg/mL, partner 0.39 µg/mL	0.979
S. aureus Newman [6], first compound 0.5 µg/mL, partner 0.78 µg/mL	≥ 1
S. aureus Newman [6], first compound 0.5 µg/mL, partner 1.56 µg/mL	≥ 1
S. aureus Newman [6], first compound 1 µg/mL, partner 0.39 µg/mL	≥ 1
S. aureus Newman [6], first compound 1 µg/mL, partner 0.78 µg/mL	≥ 1
S. aureus Newman [6], first compound 1 µg/mL, partner 1.56 µg/mL	≥ 1
S. aureus Newman [6], first compound 2 µg/mL, partner 0.39 µg/mL	0.994
S. aureus Newman [6], first compound 2 µg/mL, partner 0.78 µg/mL	≥ 1
S. aureus Newman [6], first compound 2 µg/mL, partner 1.56 µg/mL	≥ 1
S. pneumoniae D39V [5], first compound 2 µg/mL, partner 1 µg/mL	0.955
S. pneumoniae D39V [5], first compound 2 µg/mL, partner 2 µg/mL	0.915
S. pneumoniae D39V [5], first compound 4 µg/mL, partner 1 µg/mL	0.984
S. pneumoniae D39V [5], first compound 8 µg/mL, partner 1 µg/mL	0.906
S. pneumoniae D39V [5], first compound 8 µg/mL, partner 4 µg/mL	0.19

fitness, S. aureus Newman [6], one replicate
Conditions	first compound 0.375 µg/mL	first compound 0.75 µg/mL	first compound 1.5 µg/mL
partner 0.39 µg/mL	≥ 1	≥ 1	0.973
partner 0.78 µg/mL	≥ 1	≥ 1	≥ 1
partner 1.56 µg/mL	≥ 1	≥ 1	≥ 1

CNC(C)C1CCC(N)C(OC2C(N)CC(N)C(OC3OCC(C)(O)C(NC)C3O)C2O)O1 (centres undefined) [Gentamicin] + C[n+]1ccc(-c2cc[n+](C)cc2)cc1 [Paraquat]
Conditions	Bliss interaction score
B. subtilis 168 [1]	-0.0978
S. aureus DSM 20231	0.109
S. aureus Newman [3]	0.0489
S. pneumoniae D39V [2]	0.0553

Conditions	fitness
B. subtilis 168 [4], first compound 0.0625 µg/mL, partner 1.25 µg/mL	0.865
B. subtilis 168 [4], first compound 0.0625 µg/mL, partner 2.5 µg/mL	0.864
B. subtilis 168 [4], first compound 0.25 µg/mL, partner 1.25 µg/mL	0.203
B. subtilis 168 [4], first compound 0.25 µg/mL, partner 2.5 µg/mL	0.0485
B. subtilis 168 [4], first compound 0.25 µg/mL, partner 5 µg/mL	0.0561
S. aureus Newman [6], first compound 0.5 µg/mL, partner 1.25 µg/mL	0.957
S. aureus Newman [6], first compound 0.5 µg/mL, partner 2.5 µg/mL	0.953
S. aureus Newman [6], first compound 0.5 µg/mL, partner 5 µg/mL	0.928
S. aureus Newman [6], first compound 1 µg/mL, partner 1.25 µg/mL	0.981
S. aureus Newman [6], first compound 1 µg/mL, partner 2.5 µg/mL	≥ 1
S. aureus Newman [6], first compound 1 µg/mL, partner 5 µg/mL	0.992
S. aureus Newman [6], first compound 2 µg/mL, partner 1.25 µg/mL	≥ 1
S. aureus Newman [6], first compound 2 µg/mL, partner 2.5 µg/mL	≥ 1
S. aureus Newman [6], first compound 2 µg/mL, partner 5 µg/mL	0.963
S. pneumoniae D39V [5], first compound 2 µg/mL, partner 1.5 µg/mL	0.982
S. pneumoniae D39V [5], first compound 2 µg/mL, partner 3 µg/mL	0.99
S. pneumoniae D39V [5], first compound 2 µg/mL, partner 6 µg/mL	0.931
S. pneumoniae D39V [5], first compound 4 µg/mL, partner 1.5 µg/mL	≥ 1
S. pneumoniae D39V [5], first compound 4 µg/mL, partner 3 µg/mL	0.971
S. pneumoniae D39V [5], first compound 4 µg/mL, partner 6 µg/mL	0.932
S. pneumoniae D39V [5], first compound 8 µg/mL, partner 1.5 µg/mL	0.993
S. pneumoniae D39V [5], first compound 8 µg/mL, partner 3 µg/mL	0.902
S. pneumoniae D39V [5], first compound 8 µg/mL, partner 6 µg/mL	0.935

fitness, S. aureus Newman [6], one replicate
Conditions	first compound 0.375 µg/mL	first compound 0.75 µg/mL	first compound 1.5 µg/mL
partner 1.25 µg/mL	0.919	0.918	0.949
partner 2.5 µg/mL	0.951	0.937	0.98
partner 5 µg/mL	0.952	0.9	0.976

CNC(C)C1CCC(N)C(OC2C(N)CC(N)C(OC3OCC(C)(O)C(NC)C3O)C2O)O1 (centres undefined) [Gentamicin] + Cc1cc(NS(=O)(=O)c2ccc(N)cc2)no1 [Sulfamethoxazol]
Conditions	Bliss interaction score
B. subtilis 168 [1]	0.128
S. aureus DSM 20231	0.0736
S. aureus Newman [3]	-0.0274
S. pneumoniae D39V [2]	0.0873

one replicate
Conditions	fitness
B. subtilis 168 [4], first compound 0.0625 µg/mL, partner 0.5 µg/mL	0.848
B. subtilis 168 [4], first compound 0.125 µg/mL, partner 0.5 µg/mL	0.975
B. subtilis 168 [4], first compound 0.25 µg/mL, partner 0.5 µg/mL	0.864
S. aureus Newman [6], first compound 0.375 µg/mL, partner 1 µg/mL	≥ 1
S. aureus Newman [6], first compound 0.375 µg/mL, partner 2 µg/mL	0.979
S. aureus Newman [6], first compound 0.375 µg/mL, partner 4 µg/mL	≥ 1
S. aureus Newman [6], first compound 0.75 µg/mL, partner 1 µg/mL	0.974
S. aureus Newman [6], first compound 0.75 µg/mL, partner 2 µg/mL	0.926
S. aureus Newman [6], first compound 0.75 µg/mL, partner 4 µg/mL	≥ 1
S. aureus Newman [6], first compound 1 µg/mL, partner 8 µg/mL	≥ 1
S. aureus Newman [6], first compound 1.5 µg/mL, partner 1 µg/mL	≥ 1
S. aureus Newman [6], first compound 1.5 µg/mL, partner 2 µg/mL	0.975
S. aureus Newman [6], first compound 1.5 µg/mL, partner 4 µg/mL	0.981
S. aureus Newman [6], first compound 2 µg/mL, partner 8 µg/mL	0.975
S. aureus Newman [6], first compound 4 µg/mL, partner 2 µg/mL	0.899
S. aureus Newman [6], first compound 4 µg/mL, partner 4 µg/mL	0.691
S. aureus Newman [6], first compound 4 µg/mL, partner 8 µg/mL	0.852

fitness
Conditions	partner 1 µg/mL	partner 2 µg/mL	partner 4 µg/mL
B. subtilis 168 [4], first compound 0.0625 µg/mL	0.904	0.902	0.906
B. subtilis 168 [4], first compound 0.25 µg/mL	–	–	0.0278
S. aureus Newman [6], first compound 0.5 µg/mL	0.948	0.936	0.981
S. aureus Newman [6], first compound 1 µg/mL	≥ 1	≥ 1	0.999
S. aureus Newman [6], first compound 2 µg/mL	0.98	0.986	1
S. pneumoniae D39V [5], first compound 2 µg/mL	0.942	0.942	0.962
S. pneumoniae D39V [5], first compound 4 µg/mL	0.973	0.977	0.967
S. pneumoniae D39V [5], first compound 8 µg/mL	0.978	0.968	0.951

CNC(C)C1CCC(N)C(OC2C(N)CC(N)C(OC3OCC(C)(O)C(NC)C3O)C2O)O1 (centres undefined) [Gentamicin] + Cc1ncc([N+](=O)[O-])n1CCO [Metronidazole]
Conditions	Bliss interaction score
B. subtilis 168 [1]	-0.0531
S. aureus DSM 20231	0.0225
S. aureus Newman [3]	0.0412
S. pneumoniae D39V [2]	0.0587

fitness
Conditions	partner 0.625 µg/mL	partner 0.781 µg/mL	partner 1.073 µg/mL	partner 1.25 µg/mL	partner 1.562 µg/mL	partner 2.145 µg/mL	partner 2.5 µg/mL	partner 3.124 µg/mL	partner 4.29 µg/mL	partner 5 µg/mL
B. subtilis 168 [4], first compound 0.0625 µg/mL	0.897	–	–	0.926	–	–	0.922	–	–	–
B. subtilis 168 [4], first compound 0.25 µg/mL	0.0729	–	–	–	–	–	0.0383	–	–	–
S. aureus Newman [6], first compound 0.5 µg/mL	0.995	0.92	–	0.979	0.911	–	≥ 1	0.913	–	–
S. aureus Newman [6], first compound 1 µg/mL	≥ 1	≥ 1	–	0.974	≥ 1	–	0.986	≥ 1	–	–
S. aureus Newman [6], first compound 2 µg/mL	≥ 1	≥ 1	–	0.981	≥ 1	–	≥ 1	≥ 1	–	–
S. pneumoniae D39V [5], first compound 2 µg/mL	–	–	0.983	0.985	–	0.864	≥ 1	–	0.8	0.996
S. pneumoniae D39V [5], first compound 4 µg/mL	–	–	0.976	0.992	–	0.987	≥ 1	–	0.827	0.986
S. pneumoniae D39V [5], first compound 8 µg/mL	–	–	0.98	0.955	–	0.96	0.959	–	0.942	0.959

fitness, S. aureus Newman [6], one replicate
Conditions	first compound 0.375 µg/mL	first compound 0.75 µg/mL	first compound 1.5 µg/mL
partner 0.625 µg/mL	0.94	0.944	0.951
partner 1.25 µg/mL	≥ 1	≥ 1	≥ 1
partner 2.5 µg/mL	≥ 1	≥ 1	≥ 1
